In US12653802B2, “Method for treating lung cancer” (priority 2020, dated 2026):

Key:
[1] = Body weight changes in the tumor mice treated with Compound 35d alone (FIG. 2D); assay type: in vivo; settings: 100 mg/kg daily, treated for more than 1 month
Experimental: In order to verify the anticancer effect of the diarylheptanoid compound of the present disclosure in vivo, the GR6 tumor mouse model, the GR8 tumor mouse model and the HCC827 tumor mouse model of xenotransplantation were first established, and the GR6 tumor mice, the GR8 tumor mice, and the HCC827 tumor mice were treated with 100 mg/kg of Compound 35d daily for 35 days, and the tumor size and body weight of the GR6 tumor mice, the GR8 tumor mice, and the HCC827 tumor mice were recorded.

[2] = Body weight changes in GR6 tumor mice, single and combined treatment (FIG. 3B); assay type: in vivo; settings: Compound 35d 100 mg/kg per day alone or with osimertinib 1 mg/kg per day
Experimental: (§1) EGFR-TKIs are currently the standard treatment for NSCLC patients with the EGFR gene mutation. To further test whether the combined use of the diarylheptanoid compound of the present disclosure and known drug can enhance the therapeutic effect of NSCLC, the GR6 tumor mice were divided into 4 groups. One group received 100 mg/kg Compound 35d treatment per day (represented as 35d), another group received 1 mg/kg osimertinib treatment per day (represented as Osi), still another group received the combined treatment of 100 mg/kg Compound 35d and 1 mg/kg osimertinib per day (represented as 35d+Osi), and the other group was the control group without drug treatment.

GR6 tumor = test: Tumor re-progression in GR6 tumor mice, single and combined treatment with osimertinib (FIG. 3A); assay type: in vivo; settings: Compound 35d 100 mg/kg per day, osimertinib 1 mg/kg per day, alone or combined
Experimental: as §1

GR10 cells = test: Cell survival assay in gefitinib-resistant NSCLC cells, IC50 (FIG. 1C); assay type: cell-based; settings: treated for 3 days, versus curcumin
Experimental: (§2) Experimentally, another 7 EGFR-TKIs resistant NSCLC cells were treated with Compound 21a, Compound 35a, Compound 35d, Compound 36 or Compound 37, and then the cell survival assay was performed to measure the IC50 values of the diarylheptanoid compounds of the present disclosure in the EGFR-TKIs resistant NSCLC cells, so as to determine the growth inhibitory effect of the diarylheptanoid compounds of the present disclosure on the EGFR-TKIs resistant NSCLC cells.
(§3) Please refer to FIG. 1B, FIG. 1C and FIG. 1D.

GR6 cells = test: as above; assay type: cell-based; settings: treated for 3 days, versus curcumin
Experimental: as §2, §3

GR5 cells = test: as above; assay type: cell-based; settings: treated for 3 days, versus curcumin
Experimental: as §2, §3

GR8 cells = test: as above; assay type: cell-based; settings: treated for 3 days, versus curcumin
Experimental: as §2, §3

GR9 cells = test: as above; assay type: cell-based; settings: treated for 3 days, versus curcumin
Experimental: as §2, §3

GR2 cells = test: as above; assay type: cell-based; settings: treated for 3 days, versus curcumin
Experimental: as §2, §3

H1650 cells = test: Growth inhibition of EGFR gene mutant NSCLC cells, cell survival stained with crystal violet, IC50 (FIG. 1A); assay type: cell-based; settings: treated for 3 days, versus parent compound curcumin
Experimental: The EGFR gene mutant NSCLC cells were treated with the diarylheptanoid compounds of the present disclosure, and then the cell survival was stained with crystal violet to measure the IC50 values of the diarylheptanoid compounds of the present disclosure in the EGFR gene mutant NSCLC cells, so as to determine the growth inhibitory effect of the diarylheptanoid compounds of the present disclosure on the EGFR gene mutant NSCLC cells.
EGFR gene mutations in lung cancer are mostly found in exons 18-21, which are the intracellular tyrosine kinase coding region. The most common mutations include E746-A750del in exon 19 and L858R point mutation in exon 21, which account for about 85%-90% of EGFR gene mutations. Tumor cells with these two mutations are sensitive to the EGFR-TKIs, known as activating mutations. Secondary mutations may occur in some tumor cells, and the most common secondary mutation is the T790M mutation in exon 20, which is a drug resistance mutation. […] The H1650 cells have the E746-A750del mutation in exon 19 of the EGFR gene, wherein the CCM represents curcumin and the BDMC represents bisdemethoxycurcumin.

H1975 cells = test: Cell survival assay in EGFR-TKIs resistant NSCLC cells, IC50 (FIG. 1B); assay type: cell-based; settings: treated for 3 days, versus curcumin
Experimental: as §2, §3

SMILES | body weight of the tumor mice [1] | body weight of the GR6 tumor mice [2] | tumor size / tumor re-progression in the GR6 tumor mice (GR6 tumor) | inhibitory activity on the growth of the GR10 cells (IC50) compared with curcumin (GR10 cells) | inhibitory activity on the growth of the GR6 cells (IC50) compared with curcumin (GR6 cells) | inhibitory activity on the growth of the GR5 cells (IC50) compared with curcumin (GR5 cells) | inhibitory activity on the growth of the GR8 cells (IC50) compared with curcumin (GR8 cells) | inhibitory activity on the growth of the GR9 cells (IC50) compared with curcumin (GR9 cells) | inhibitory activity on the growth of the GR2 cells (IC50) compared with curcumin (GR2 cells) | inhibitory activity on the growth of the H1650 cells (IC50) compared with curcumin (H1650 cells) | inhibitory activity on the growth of the H1975 cells (IC50) compared with curcumin (H1975 cells)
C#CCC(CC#C)(C(=O)/C=C/c1ccc(OC(=O)C(C)(CO)CO)c(OC)c1)C(=O)/C=C/c1ccc(OC(=O)C(C)(CO)CO)c(OC)c1 [Compound 35d, ((1E,6E)-3,5-dioxo-4,4-di(prop-2-yn-1-yl)hepta-1,6-diene-1,7-diyl)bis(2-methoxy-4,1-phenylene)bis(3-hydroxy-2-(hydroxymethyl)-2-methylpropanoate)] | did not decrease significantly | neither the single treatment of Compound 35d nor the combined treatment of Compound 35d and osimertinib can significantly reduce the body weight |  |  |  |  |  |  |  |  | 
C=CC(=O)Nc1cc(Nc2nccc(-c3cn(C)c4ccccc34)n2)c(OC)cc1N(C)CCN(C)C [osimertinib] |  |  | initially reduced by osimertinib treatment, the treated tumors subsequently re-growth |  |  |  |  |  |  |  | 
COc1cc(/C=C/C(=O)/C=C(O)/C=C/c2ccc(OC(=O)C(C)(CO)CO)c(OC)c2)ccc1OC(=O)C(C)(CO)CO [Compound 21a, ((1E,3Z,6E)-3-hydroxy-5-oxohepta-1,3,6-triene-1,7-diyl)bis(2-methoxy-4,1-phenylene)bis(3-hydroxy-2-hydroxymethyl)-2-methylpropanoate] |  |  |  | significantly better inhibitory activity than curcumin | significantly better inhibitory activity than curcumin | significantly better inhibitory activity than curcumin | significantly better inhibitory activity than curcumin | significantly better inhibitory activity than curcumin | significantly better inhibitory activity than curcumin | significantly better inhibitory activity than the parent compound—curcumin | significantly better inhibitory activity than curcumin
COc1cc(/C=C/C(=O)C(C)(C)C(=O)/C=C/c2ccc(OC(=O)C(C)(CO)CO)c(OC)c2)ccc1OC(=O)C(C)(CO)CO [Compound 35a, ((1E,6E)-4,4-dimethyl-3,5-dioxohepta-1,6-diene-1,7-diyl)bis(2-methoxy-4,1-phenylene)bis(3-hydroxy-2-hydroxymethyl)-2-methylpropanoate] |  |  |  | significantly better inhibitory activity than curcumin | significantly better inhibitory activity than curcumin | significantly better inhibitory activity than curcumin | significantly better inhibitory activity than curcumin | significantly better inhibitory activity than curcumin | significantly better inhibitory activity than curcumin | significantly better inhibitory activity than the parent compound—curcumin | significantly better inhibitory activity than curcumin
